Measured values as given in US12606798B2, “Methods and materials for hematoendothelial differentiation of human pluripotent stem cells under defined conditions” (WISCONSIN ALUMNI RESEARCH FOUNDATION, priority 2013, dated 2026).

Key:
Type in all cases: cell-based, human
hESCs [1] = assay: hPSC hematoendothelial differentiation on ColIV vs TenC in chemically defined conditions, flow cytometry
Experimental: (§1) Human pluripotent stem cells were detached from vitronectin or matrigel when they reached 80% confluency using 1× TrypLE (Life Technologies) and plated at an optimized density ranging from 5000 cells/cm^2 to 15,000 cells/cm^2 depending on the cell line onto 6-well plates coated with 0.5 μg/cm^2 of ColIV (Sigma-Aldrich) or 0.5 μg/cm^2 Tenascin-C (Millipore) in E8 media supplemented with 10 μM Rho Kinase inhibitor (Tocris Y-27632). After 24 hours (day 0), the media was changed to IF9S media supplemented with 50 ng/ml BMP4 (Peprotech), 15 ng/ml Activin A (Peprotech), 50 ng/ml FGF2 (Miltenyi Biotech), 2 mM LiCl (Sigma), and on occasion, 1 μM Rho Kinase inhibitor to increase cell viability. On day 2, the media was changed to IF9S media supplemented with 50 ng/ml FGF2 and 50 ng/ml VEGF, and 10 μM SB-431542 (Tocris) where mentioned. On day 4, the media was changed to IF9S media supplemented with 50 ng/ml FGF2, VEGF, TPO, SCF, IL-6, and 10 ng/ml IL-3. On day 6, additional IF9S media supplemented with the same 6 factors were added to the cultures without aspirating the old media (Table 3 Table 3). IF9S (IMDM/F12 with 9 supplements) was made in-house with the following: 50% IMDM 50% F12 (Life Technologies) supplemented with 64 mg/L L-ascorbic Acid 2-Phosphate Mg2+ salt (Sigma-Aldrich), 40 ul/L monothioglycerol (Sigma-Aldrich), 8.4 μg/L additional sodium selenite (Sigma-Aldrich), 10 mg/L polyvinyl alcohol (Sigma-Alderich), 1× glutamax (Life Technologies), 1× non-essential amino acids (Life Technologies), 0.1× chemically defined lipid concentrate (Life Technologies), 10.6 mg/L Holo-Transferrin (Sigma-Aldrich), and 20 mg/L Insulin (Sigma-Aldrich) (Table 2). Differentiation was conducted in hypoxic condition from day 0 to day 5, and transferred to normoxic condition from day 6 to day 9 (FIG. 1). The 1× TrypLE was used to dissociate and collect cells for analysis.
Flow Cytometry was conducted using the using a FACSCalibur flow cytometer and following antibodies: CD31-FITC (clone WM59), CD34-FITC (8G12), CD41a-FITC/APC (clone HIPS), CD43-FITC/PE/APC (clone 1G10), CD45-APC (clone HI30), CD73-FITC/PE (clone AD2), CD144-FITC/PE/AlexaFluor647 (clone 55-7H1), CD235a-FITC/PE/APC (clone GA-R2), KDR-PE/AlexaFluor647 (clone 89106), PDGFRα-PE (clone aR1) (BD Biosciences), TRA-1-85-FITC/PE (clone TRA-1-85), and APLNR-APC (clone 72133) (R&D Systems). Sorting was conducted on a FACS Aria, as described previously 46. The purity of isolated populations was 92-95%.

hESCs [2] = assay: Mesenchymo- (MB) and hemangioblast (HB) colony assay; conditions: day 2 and day 3 cultures; TenC compared with ColIV
Experimental: MB and HB were detected using serum-free CFC medium supplemented with FGF2 assay as previously described^11. Day 2 or 3 cultures were dissociated and prepared in a single-cell suspension using 1× TrypLE (Life Technologies) and 5,000 cells of the total culture were plated into the CFC media. MB and HB colonies were scored 12 days after plating the single-cell suspension.

hESCs [3] = assay: Hematopoietic CFC assay; conditions: day 8, TenC compared with ColIV
Experimental: Hematopoietic CFC were detected using serum-containing H4436 Methocult™ supplemented with human recombinant SCF, G-CSF, GM-CSF, IL-3, IL-6, and EPO (Stem Cell Technologies). Hematopoietic potential of AHPs was evaluated using serum-free SF H4236 methocult with added FGF2 (20 ng/ml), SCF (20 ng/mL), IL3 (10 ng/mL), IL6 (10 ng/mL), and EPO (2 U/mL) (Stem Cell Technologies) as previously described^6. 1000-10000 differentiated cells were plated into the CFC medium and the colonies were scored after 14 days of culture.

[4] = system: CD43+ cells collected from H1 hESCs; assay: T-cell differentiation of day 9 cultures on OP9-DLL4; conditions: CD43+ cells from day 9 cultures on the matrix, OP9-DLL4 coculture
Experimental: An OP9 cell line (OP9-DLL4) constitutively expressing human delta-like ligand 4 (DLL4) was established by our lab using lentivirus and was maintained similarly to OP9. After human pluripotent stem cells were differentiated for 9 days, the floating cells were collected, strained through a 70 μm cell strainer (BD Biosciences) and washed. Then, they were resuspended in T-cell differentiation media consisting of α-MEM (Gibco) supplemented with 20% FBS (Hyclone) supplemented with IL7 (5 ng/ml), Flt3L (5 ng/ml) and SCF ([…]). Then, they were plated on an OP9-DLL4 and cultured at 37° C. and 5% CO2. After 4 days, the cells were harvested using collagenase IV (Gibco) solution (1 mg/ml in DMEM/F12, Gibco) and 1× TrypLE (Invitrogen), and passaged onto a fresh layer of OP9-DLL4. After 3 days, the cells are passaged again. Subsequent passages are conducted every 7 days up to 4 weeks, after which the floating cells are collected for flow analysis and genomic DNA extraction for TCR rearrangement assay.

H1 hESCs = assay: Hematopoietic differentiation of H1 hESCs in chemically defined conditions with TGFβ inhibitor, flow cytometry
Experimental: as §1, with “analysis. Flow Cytometry was conducted using the using a FACSCalibur flow cytometer and following antibodies: CD31-FITC (clone WM59), CD34-FITC (8G12), CD41a-FITC/APC (clone HIPS), CD43-FITC/PE/APC (clone 1G10), CD45-APC (clone HI30), CD73-FITC/PE (clone AD2), CD144-FITC/PE/AlexaFluor647 (clone 55-7H1), CD235a-FITC/PE/APC (clone GA-R2), KDR-PE/AlexaFluor647 (clone 89106), PDGFRα-PE (clone aR1) (BD Biosciences), TRA-1-85-FITC/PE (clone TRA-1-85), and APLNR-APC (clone 72133) (R&D Systems). Sorting was conducted on a FACS Aria, as described previously 46. The purity of isolated populations was 92-95%. Recent studies have shown that adding TGF-β inhibitors after mesoderm specification but before endothelial development increases definitive hematopoietic differentiation.” for “analysis.”

Row | Compound | hematopoietic differentiation potential of CB hiPSCs (hESCs [1]; cord blood mononuclear cell-derived hiPSCs) | percentage of KDRhiAPLNR+PDGFRalphalo/− HVMPs cells (hESCs [1]; day 4, TenC compared with ColIV) | population of total CD144+ cells (HEPs, non-HEPs, AHPs) (hESCs [1]; day 5, compared to cultures differentiated on ColIV) | CD43+ hematopoietic progenitors expansion (hESCs [1]; day 8, TenC compared to ColIV) | APLNR+PDGFRalpha+ cells (hESCs [1]; days 2 and 3, TenC compared with ColIV) | MB and HB colonies (hESCs [2]) | GEMNI-CFC potential of cultures (hESCs [3]) | CFC potential of cultures (hESCs [3]; 3 experiments, p<0.01) | capacity of CD43+ cells to generate CD5+CD7+ lymphoid progenitors [4] | progression toward CD4+CD8+ T lymphoid cells ([4]; week 3) | development of PDGFRalpha-positive mesoderm cells (H1 hESCs; 10 μM added from day 2 to day 4, read on day 3) | CD31+ differentiation (H1 hESCs; 10 μM added from day 2 to day 4, read on day 4) | CD43+ population (H1 hESCs; 10 μM added from day 2 to day 4, read on day 9) | CD43+ hematopoietic progenitors (H1 hESCs; added from day 2 to day 4 only, day 8) | endothelial progenitors (H1 hESCs; added from day 2 to day 4 only, days 4 and 5)
1 | TenC: human Tenascin C extracellular matrix protein (GenBank CAA55309.1; Millipore CC065) used as culture substrate | restored hematopoietic differentiation potential of CB hiPSCs to the level seen with hESCs and FB hiPSCs | consistently higher | larger population | expanded significantly more | significantly higher | significantly higher | significantly greater | higher CFC potential | had a capacity | observed only from CD43^+ cells generated on TenC |  |  |  |  | 
2 | NC(=O)c1ccc(-c2nc(-c3ccc4c(c3)OCO4)c(-c3ccccn3)[nH]2)cc1 [SB-431542] |  |  |  |  |  |  |  |  |  |  | significantly decreases | increases | continues to increase | significant increase | increases
